Results as given in patent US11820994B2, “Methods of inducing apomictic or sexual reproduction” (priority 2018, dated 2023).

Columns and labels:
B. stricta ovules [1] = test: In vitro culture of pistils on epiBL-containing medium, dyad formation; type: cell-based
Method: (§1) FIG. 40 Frequencies of B. stricta ovules (dyads and tetrads) that were undergoing dyad formation (sexual or diplosporous) at the end of pistil treatment as affected by i) a 3 h in vivo floral dip in solutions containing epibrassinolide (epiBL) or ii) culturing of pistils in epiBL-containing media with in vitro culture of pistils initiated when pistils were in the 1-I or the 2-III to 2-IV stages. Numbers of correctly-staged ovules (dyads plus tetrads) per data point averaged 53 and ranged from 27-82.
(§2) epiBL is the naturally occurring and most biologically active form of BR. Applications of epiBL to pistils of sexual B. stricta, in vivo or in vitro, caused MMC to abort meiosis and instead produce dyads (FIG. 40). […] This induced 31% dyad formation, compared to 7% for the controls (a frequency often observed in sexual plants where they represent an intermediate stage of sexual meiosis). A similar dyad induction frequency (29%) was obtained by culturing 1-I to 2-II staged B. stricta pistils on a 0.1 μmol L−1 epiBL medium for 2 d (FIG. 40).

Arabidopsis anthers = test: Anthers cultured in vitro with epiBL, unreduced pollen microspores; type: cell-based; conditions: 0.1 μM epiBL on 2% sucrose medium for 24 h
Source text: (§3) Scale bars: 50 μm (FIG. 51A), 20 μm (FIGS. 51B-51E).

Arabidopsis ovules [2] = test: Pistil culture experiments with 5-azaC, BR (epiBL), DTBA, H2O2 and sugars, meiosis to apomeiosis; type: cell-based, Arabidopsis thaliana; conditions: BR alone
Source text: (§4) To address redox instability, pistils were exposed to the antioxidant DTBA, an antioxidant that protects thiol groups in proteins from oxidization. To address bioenergetic stress, pistils were exposed to sugars. Glucose signaling is one of the most ancient and central signaling pathways in animals and plants and is involved in gene expression, primary and secondary metabolism, and regulation of growth and development (98). In Arabidopsis, rates of glycolysis and mitochondrial bioenergetics are sensed by TOR, which then control root meristem activation (18). If sufficient sugar is supplied, TOR should be activated. Active TOR protects BZR1 and other important BR-regulated enzymes from degradation, and this leads to plant growth (25). Factorial experiments were designed to test the effects of sucrose, glucose, epiBL, DTBA and 5-azaC on apomixis induction. These were designed for each of three sexual species, B. stricta, arabidopsis and cowpea. The experiments were performed and ratios of apomeiosis to meiosis were documented.
Two factorial experiments were conducted using immature arabidopsis pistils. In the first experiment, no 5-azaC, 5-azaC in the pretreatment only, or 5-azaC in both the pretreatment and the tissue culture medium were tested.
Cytological Analyses. Arabidopsis, Drummond's rockcress and cowpea floral buds were fixed in FAA (v/v: 3.7% formaldehyde, 5% acetic acid, 50% ethanol) for 48 h and cleared in 2:1 benzyl benzoate dibutyl phthalate (BBDP) (80): 1) 70% EtOH, 30 min; 95% EtOH, ≥4 h (2×); 95% EtOH:BBDP (2:1), 2 h; 95% EtOH:BBDP (1:2), 4 h; BBDP, 4 h; BBDP, overnight. Cleared pistils were mounted (up to 16 per slide) and measured from the pedicel base to the top of the stigma. Ovule development stages were studied using a BX53 microscope equipped with differential interference contrast optics and a MicroFire 599809 camera (Olympus, Center Valley, Pa., USA). For chromosome staining, pistils were soaked in 95% ethanol that contained 0.1 mg L^−1 4′,6-diamidino-2-phenylindole (DAPI). Callose was stained by soaking DAPI stained pistils in aqueous aniline blue (Millipore Sigma, Darmstadt, Germany) (124). DAPI fluorescence was detected with a Zeiss LSM 510 confocal microscope with excitation at 408 nm, dichroic reflector at HFT488 nm and detection at 450-650 nm. Callose was distinguished from DAPI by detection at 550-650 nm.
Presence of the following ovule characteristics were recorded: MMCs, Antennaria type diplosporous 1-2 nucleate ES, sexual or Taraxacum type diplosporous dyads, sexual tetrads, sexual or Taraxacum type diplosporous 1-2 nucleate ES, AI and AES. Developmental stages for the majority of ovules per pistil were recorded, and pistil lengths for the following stages (125) were recorded: 1-II, ovule meristems protruding from placentae (precedes MMC formation); 2-IV, meiosis; 3-III, vacuole in immature ES beginning to appear; 4-VI, nuclear divisions in endosperm underway. To determine average timing of meiosis onset, pistils primarily containing premeiotic (2-III) ovules were located under low light conditions 1 h before the lights came on in the morning. Corresponding sepals were marked with a small point permanent marker. Pistils were then randomly harvested for analysis when the lights came on and 3 h thereafter.
Pistils were aseptically excised, but not disinfested, at the early pre-MMC to MMC stages and incubated in vitro. The basal culture medium for arabidopsis and Drummond's rockcress was MS (126) (Caisson Laboratories, Inc., Smithfield, UT USA) with 20 g L^−1 sucrose or glucose and solidified with 1.45 g L^−1 Phytogel (MilliporeSigma).

Arabidopsis embryo sacs = test: Induction of parthenogenesis and autonomous endosperm formation in pistils; type: cell-based; conditions: 2 μM BR or 50 mM glucose prior to central cell callose deposition
Method: as §3
FIG. 52 Parthenogenesis in putatively diploid Arabidopsis embryo sacs induced by treatment of pistils in emasculated flowers with 2 μM BR or 50 mM glucose. To prevent fertilization, stigmas of pistils were clipped while anthers were immature. These pistils were also treated premeiotically with BR and glucose.
Functional apomixis requires not only apomeiosis but also parthenogenesis and, in plants, endosperm formation.

B. stricta ovules [3] = test: In vivo floral dip in epiBL solution, dyad formation; conditions: flower buds dipped 3 h in 10 μmol L−1 epiBL; controls 7%
Method: as §1, §2

Arabidopsis ovules [4] = test: Topical application of BR or glucose to intact pistils, apomeiosis induction; type: in vivo, Arabidopsis thaliana
Method: Most of the functional megaspores from these treatments originated by Taraxacum-type diplospory (FIG. 42) with frequent subepidermal layer of cells with or without a parietal cell. A few cases of Antennaria-type diplospory were also observed (FIG. 43).
(§5) Cytological Analyses. Arabidopsis, Drummond's rockcress and cowpea floral buds were fixed in FAA (v/v: 3.7% formaldehyde, 5% acetic acid, 50% ethanol) for 48 h and cleared in 2:1 benzyl benzoate dibutyl phthalate (BBDP) (80): 1) 70% EtOH, 30 min; 95% EtOH, ≥4 h (2×); 95% EtOH:BBDP (2:1), 2 h; 95% EtOH:BBDP (1:2), 4 h; BBDP, 4 h; BBDP, overnight. Cleared pistils were mounted (up to 16 per slide) and measured from the pedicel base to the top of the stigma. […] DAPI fluorescence was detected with a Zeiss LSM 510 confocal microscope with excitation at 408 nm, dichroic reflector at HFT488 nm and detection at 450-650 nm. […]
Presence of the following ovule characteristics were recorded: MMCs, Antennaria type diplosporous 1-2 nucleate ES, sexual or Taraxacum type diplosporous dyads, sexual tetrads, sexual or Taraxacum type diplosporous 1-2 nucleate ES, AI and AES. […]
For topical applications, sepals of floral buds were separated, and pistil lengths were measured using a dissecting microscope. […]

[5] = tested on: B. stricta (Drummond's rockcress) ovules; test: Pistil culture factorial experiment with sucrose, glucose, epiBL, DTBA and 5-azaC; type: cell-based, Boechera stricta
Source text: as §4
Both the carbohydrate variable and the other components variable were highly significant (P<0.001). Additionally, three ovules from the sucrose plus epiBL treatment (epiBL in the pretreatment and in the medium) had formed aposporous embryo sacs (AES). Also, two ovules, one from the sucrose-epiBL-epiBL treatment and one from the glucose-DTBA-DTBA treatment, had formed Antennaria-type diplosporous embryo sacs (FIGS. 48A-48H).
as §5
Presence of the following ovule characteristics were recorded: MMCs, Antennaria type diplosporous 1-2 nucleate ES, sexual or Taraxacum type diplosporous dyads, sexual tetrads, sexual or Taraxacum type diplosporous 1-2 nucleate ES, AI and AES. Developmental stages for the majority of ovules per pistil were recorded, and pistil lengths for the following stages (125) were recorded: 1-II, ovule meristems protruding from placentae (precedes MMC formation); 2-IV, meiosis; 3-III, vacuole in immature ES beginning to appear; 4-VI, nuclear divisions in endosperm underway. […]

CC(C)[C@@H](C)[C@@H](O)[C@H](O)[C@@H](C)[C@H]1CC[C@H]2[C@@H]3COC(=O)[C@H]4C[C@H](O)[C@H](O)C[C@]4(C)[C@H]3CC[C@]12C [epiBL, epibrassinolide]
dyad induction frequency (B. stricta ovules [1]; 1-I to 2-II staged pistils on 0.1 μmol L−1 epiBL medium for 2 d): 29% | unreduced embryo sacs forming from epiBL-induced dyads (B. stricta ovules [1]; epiBL treatments): only rarely observed | ratios of observed dyads (B. stricta ovules [1]; epiBL treatments (in vivo or in vitro)): 30% | unreduced pollen microspores (Arabidopsis anthers): Unreduced pollen dyads of microspores | AES formation (Arabidopsis ovules [2]): Low levels | ovules with meiosis stopped, MMC undergoing Taraxacum type dyad or ES formation (Arabidopsis ovules [2]): 45% | callose deposition, parthenogenesis and autonomous endosperm formation (Arabidopsis embryo sacs): prevented stress-associated callose deposition and activated parthenogenesis and autonomous endosperm formation | dyad formation (B. stricta ovules [3]): 31% | apomeiotic dyad formation (Arabidopsis ovules [4]; intact pistils treated with BR or glucose solutions (2 μM BR or 50 mM glucose)): induced high frequency apomeiotic dyad formation | Taraxacum-type diplospory induction (Arabidopsis ovules [4]; topical applications 24 h before or immediately before meiosis): induced Taraxacum-type diplospory | number of ovules that formed aposporous embryo sacs (AES) ([5]; sucrose plus epiBL, epiBL in the pretreatment and in the medium): three | number of ovules that formed Antennaria-type diplosporous embryo sacs ([5]; sucrose-epiBL-epiBL treatment): one
